Assay results from patent US20080132417A1, “Molecular Basis For The Identification Of Chemotherapy Resistance In Human Tumors And The Treatment Thereof” (THE UAB RESEARCH FOUNDATION, priority 2004, published 2008).
Values after ≈ are worked out from the molar mass of the structure shown.

Key:
Assay type in all cases: cell-based, human
SW948 cells = test: Cell proliferation assay, sensitivity of SW948 to various drugs; details: SW948 parental cells, 24 h drug exposure, cells counted day 4, mean ± SD of 1-4 assays; for IC50: Homo sapiens, read-out: mean IC50 dose, SW948
Method: (§1) Determination of cross-resistance was determined by cell proliferation assay. SW948, SW948CPTH or SW948CPTL cells were plated in 24-well tissue culture plates and allowed to grow for 24 h at which time the drugs were added at various doses ranging from 0-80 μg/ml. Then 24 h later, the culture medium was removed, and the cells were washed once with PBS followed by the addition of drug-free culture medium. Cells were counted on day 4 using a cell counter (Beckman Coulter, Fullerton, Calif.). The data were analyzed with Microsoft Excel (Microsoft Corp., Redmond, Wash.) using an exponential regression model to determine the IC50 dose.

SW948CPTL cells = test: Cell proliferation assay, cross-resistance of SW948CPTL; details: for IC50: Homo sapiens, read-out: mean IC50 dose, SW948CPTL; for resistance of SW948CPTL cells (in words): compared to SW948; for fold change, SW948CPTL: fold change of IC50 vs SW948 (in brackets); for mean IC50 dose, SW948CPTL: SW948CPTL cells, without CPT-11 for >28 days, 24 h drug exposure, counted day 4, mean ± SD
Method: as §1

SW948CPTH cells = test: Cell proliferation assay, cross-resistance of SW948CPTH; details: for IC50: Homo sapiens, read-out: mean IC50 dose, SW948CPTH; for cross-resistance of SW948CPTH cells (in words): compared to SW948; for mean IC50 dose, SW948CPTH: SW948CPTH cells, without CPT-11 for >22 days, 24 h drug exposure, counted day 4, mean ± SD; for fold change, SW948CPTH: fold change of IC50 vs SW948 (in brackets)
Method: as §1

Row | SMILES | IC50 (SW948CPTL cells) | IC50 (SW948CPTH cells) | IC50 (SW948 cells) | resistance of SW948CPTL cells (in words) (SW948CPTL cells) | cross-resistance of SW948CPTH cells (in words) (SW948CPTH cells) | mean IC50 dose, SW948 (SW948 cells) | mean IC50 dose, SW948CPTH (SW948CPTH cells) | fold change, SW948CPTH (SW948CPTH cells) | fold change, SW948CPTL (SW948CPTL cells) | mean IC50 dose, SW948CPTL (SW948CPTL cells)
1 | CC[C@@]1(O)C(=O)OCc2c1cc1n(c2=O)Cc2cc3cc(O)ccc3nc2-1 [10-OH-CPT] | – | – | – | – | cross-resistant | 0.25 ± 0.16 µg/mL | 1.7 ± 0.3 µg/mL | 7 | – | –
2 | CC[C@@]1(O)C(=O)OCc2c1cc1n(c2=O)Cc2cc3ccccc3nc2-1 [CPT, camptothecin] | 0.14 µg/mL (≈ 0.402 µM) | 0.32 ± 0.02 µg/mL (≈ 0.919 µM) | 0.057 ± 0.02 µg/mL (≈ 0.164 µM) | showed resistance | cross-resistant | – | – | 6 | 2.4 | –
3 | CCc1c2c(nc3ccc(OC(=O)N4CCC(N5CCCCC5)CC4)cc13)-c1cc3c(c(=O)n1C2)COC(=O)[C@]3(O)CC [CPT-11] | – | – | – | showed resistance | cross-resistant | 3.0 ± 0.3 µg/mL | 38 ± 6.9 µg/mL | – | – | –
4 | N.N.[Cl][Pt][Cl] [Cisplatin, cisplatin] | – | – | – | showed resistance | No resistant | 1.3 ± 0.34 µg/mL | 1.5 ± 0.15 µg/mL | – | 1.7 | 2.2 ± 1.3 µg/mL
5 | CCc1c2c(nc3ccc(O)cc13)-c1cc3c(c(=O)n1C2)COC(=O)[C@]3(O)CC [SN38] | – | – | – | showed resistance | cross-resistant | 0.19 ± 0.01 µg/mL | 1.5 ± 0.13 µg/mL | 8 | 9 | 1.7 ± 0.15 µg/mL

Further lines, with some results ahead:

Row | IC50 (SW948CPTL cells) | IC50 (SW948CPTH cells) | SMILES | IC50 (SW948 cells) | resistance of SW948CPTL cells (in words) (SW948CPTL cells) | cross-resistance of SW948CPTH cells (in words) (SW948CPTH cells) | mean IC50 dose, SW948 (SW948 cells) | mean IC50 dose, SW948CPTH (SW948CPTH cells) | fold change, SW948CPTH (SW948CPTH cells) | fold change, SW948CPTL (SW948CPTL cells) | mean IC50 dose, SW948CPTL (SW948CPTL cells)
6 | 0.75 ± 0.02 µg/mL (≈ 5.77 µM) | 0.54 ± 0.2 µg/mL (≈ 4.15 µM) | O=c1[nH]cc(F)c(=O)[nH]1 [5-FU, 5-fluorouracil] | 0.61 ± 0.1 µg/mL (≈ 4.69 µM) | no resistance | No resistant | – | – | – | – | –
7 | – | 0.048 ± 0.008 µg/mL (≈ 0.0883 µM) | COc1cccc2c1C(=O)c1c(O)c3c(c(O)c1C2=O)C[C@@](O)(C(=O)CO)C[C@@H]3O[C@H]1C[C@H](N)[C@H](O)[C@H](C)O1 [Doxorubicin, doxorubicin] | 0.037 ± 0.008 µg/mL (≈ 0.0681 µM) | – | No resistant | – | – | – | – | –
8 | 1.6 ± 0.2 µg/mL (≈ 2.72 µM) | 0.7 ± 0.2 µg/mL (≈ 1.19 µM) | COc1cc([C@@H]2c3cc4c(cc3[C@@H](O[C@@H]3O[C@@H]5CO[C@@H](C)O[C@H]5[C@H](O)[C@H]3O)[C@H]3COC(=O)[C@H]23)OCO4)cc(OC)c1O [Etoposide, etoposide] | 0.8 ± 0.1 µg/mL (≈ 1.36 µM) | showed resistance | not cross-resistant | – | – | – | 2 | –
9 | 0.016 µg/mL (≈ 0.0608 µM) | 0.008 ± 0.004 µg/mL (≈ 0.0304 µM) | Nc1ccn([C@@H]2O[C@H](CO)[C@@H](O)C2(F)F)c(=O)n1 [Gemcitabine, gemcitabine] | 0.009 ± 0.004 µg/mL (≈ 0.0342 µM) | showed resistance | No resistant | – | – | – | 1.8 | –
10 | – | 0.84 ± 0.21 µg/mL (≈ 3.47 µM) | CC1(C)CCC2=C(O1)c1ccccc1C(=O)C2=O [Lapachone] | 1.06 ± 0.16 µg/mL (≈ 4.38 µM) | – | not cross-resistant | – | – | – | – | –
